Measured values from patent publication US20260007133A1, “HERBICIDAL COMPOSITION COMPRISING AZINE COMPOUNDS” (BASF SE, priority 2022, published 2026).

Assays:
Format in all cases: in vivo
Echinochloa crus-galli = assay: Greenhouse post-emergence (POST) herbicidal test on ECHCG; conditions: Echinochloa crus-galli, post-emergence, 480 h, POST, ECHCG, 20 DAT, read-out: solo application % activity
In short: (§1)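 Greenhouse weeds, raised in pots of humus-containing loamy sand, receive a water-based spray of the actives once 3 to 15 cm tall. Damage is rated visually from 0 (none) to 100 (above-ground parts destroyed) 20 days after treatment.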

Commelina benghalensis = assay: Greenhouse pre-emergence (PRE) herbicidal test on COMBE; conditions: Commelina benghalensis, pre-emergence, 480 h, PRE, COMBE, 20 DAT
In short: (§2)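 Scoring ran from 0 (normal growth) to 100 (no emergence or above-ground parts fully destroyed) and was done 20 DAT. Application was pre-emergent in pots of loamy sand (~3.0% humus) sown per species. Plants grew at 10-25° C or 20-35° C by species.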

Amaranthus retroflexus = assay: Greenhouse post-emergence (POST) herbicidal test on AMARE; conditions: Amaranthus retroflexus, post-emergence, 480 h, POST, AMARE, 20 DAT, read-out: solo application % activity
In short: as §1

Alopecurus myosuroides = assay: Greenhouse pre-emergence (PRE) herbicidal test on ALOMY; conditions: Alopecurus myosuroides, pre-emergence, 480 h, PRE, ALOMY, 20 DAT
In short: as §2

Abutilon theophrasti = assay: Greenhouse post-emergence (POST) herbicidal test on ABUTH; conditions: Abutilon theophrasti, post-emergence, 480 h, POST, ABUTH, 20 DAT
In short: as §1

[1] = I-4 solo 2 gai/ha, read-out: % activity
[2] = use rate 8 gai/ha, read-out: solo application % activity
[3] = use rate 2 gai/ha, read-out: solo application % activity

COc1c(Cl)c(F)c(F)c(F)c1Nc1nc(N)nc(C(C)(C)F)n1 [Compound I-4, N4-(5-Chloro-2,3,4-trifluoro-6-methoxy-phenyl)-6-(1-fluoro-1-methyl-ethyl)-1,3,5-triazine-2,4-diamine]
inhibition at 2 g/ha (Echinochloa crus-galli; use rate 2 gai/ha): 0%
inhibition at 8 g/ha (Echinochloa crus-galli; use rate 8 gai/ha): 5%
pest or weed control at 2 g/ha (Commelina benghalensis; [1]): 10%
inhibition at 8 g/ha (Commelina benghalensis; [2]): 10%
inhibition at 2 g/ha (Amaranthus retroflexus; use rate 2 gai/ha): 80%
inhibition at 8 g/ha (Amaranthus retroflexus; use rate 8 gai/ha): 75%
pest or weed control at 2 g/ha (Alopecurus myosuroides; [1]): 50%
inhibition at 2 g/ha (Alopecurus myosuroides; [3]): 5%
inhibition at 8 g/ha (Alopecurus myosuroides; [2]): 25%
pest or weed control at 2 g/ha (Abutilon theophrasti; I-4 solo 2 gai/ha): 20%
inhibition at 2 g/ha (Abutilon theophrasti; [3]): 10%
inhibition at 8 g/ha (Abutilon theophrasti; [2]): 10%
